In US10875871B2, “Photosensitizer” (Tampereen Korkeakoulusäätiö sr, priority 2016, dated 2020):
Entries after “also recorded” stand apart in the source; their conditions may differ.

What was measured:
A. baylyi ADP1 = assay: Colony forming unit (CFU) method, solar simulator; type: cell-based, Acinetobacter baylyi; settings: for Colony counts after incubation / CFU/ml / Colony counts after incubation (Average) / Colony counts after incubation (Duplicate): Acinetobacter baylyi
Procedure: (§1) The antimicrobial efficiency of the dye was confirmed by CFU method using microbes E. coli MG1655 (E. coli Genetic Resources at Yale) and A. baylyi ADP1 (ATCC 33305). […] The microplate was illuminated in the solar simulator for 1 hour. UV-IR radiations were cut off using a combination of KG3 band pass filter (315-750 nm transmittance) and ? c-17 yellow filter (transmittance >485 nm). Similarly, light control samples were prepared by depositing microbial medium over dyed and un-dyed samples by covering microplate with aluminum foil for 1 h at room temperature. After 1 h of illumination or incubation, the microbes were extracted with LB medium (10 g/l tryptone, 5 g/l yeast extract, 5 g/l NaCl) (975 μl) and serial dilutions were made from each extract. The dilutions were then plated on LA agar plates and incubated at 30° C. overnight. The number of colonies grown on the agar plate was counted and CFUs per milliliter were calculated from it.

A. baylyi = assay: Antimicrobial inactivation under consumer LED lamp; type: cell-based, Acinetobacter baylyi; settings: dyed filter paper, 1 h illumination from LED lamp
Procedure: as §1, with “The microplate was illuminated in the solar simulator for 1 hour.” left out
(§2) The spectrum of light emitted from the lamp prior to the experiments was measured. […] In addition, the power density of the lamp was also measured at different distances. […] The absorptance of phthalocyanine Pc4 and porphyrin ZnPf papers were calculated from reflectance and transmittance measurement of dyed papers using integrating sphere (IS) detector. The absorptance profiles were very similar to the absorbance measurement in solution. […]

[1] = test system: Escherichia coli (XL1-Blue) carrying plasmid pBAV1C-T5-lux; assay: Screening test with bioluminescent E. coli on dyed filter paper discs; type: cell-based; settings: dyed filter paper discs on LA agar, 1 hour illumination, 18 mWcm−2
Procedure: (§3) The efficiency of dyes (Pc1, Pc2, Pc3, Pc4) was screened by conducting antimicrobial test with bioluminescent bacterial strains Escherichia coli (XL1-Blue, Stratagene, USA) and Acinetobacter baylyi ADP1 (DSM 24193) carrying plasmid pBAV1C-T5-lux (the plasmid is chloramphenicol resistance derivate of the pBAV1K-T5-lux plasmid (Addgene #55800). The filter papers (12.25 cm^2) were soaked in respective dye solution (0.9 mg dye in 200 μl solvent) and allowed to dry on it. After drying, three circular discs (0.5 cm diameter) were cut from each filter paper and pasted on the LA agar (15 g/l agar, 10 g/l tryptone, 5 g/l yeast extract, 5 g/l NaCl) gel plate in such a way that each row corresponds to each dye. A circular dark screen of 0.3 cm height with a square hole in the center was placed over the agar plate. The square hole was cut in such a way that, one column which includes all the four dyes will be under the dark area of the screen while the two remaining columns will be inside the square hole. Two filters [KG3 band pass filter (315-750 nm transmittance) and ? […] Luminescence arising from the setup was recorded (Xenogen IVIS 100) before the microbial deposition on the filter paper discs. […] Luminescence of the agar plate before and after illumination of 1 hour was measured and the efficient dye which produces less luminescence was screened out from the set.

[2] = test system: Acinetobacter baylyi ADP1 carrying plasmid pBAV1C-T5-lux; assay: Screening test with bioluminescent Acinetobacter baylyi on dyed filter paper discs; type: cell-based; settings: dyed filter paper discs on LA agar, 1 hour illumination, 18 mWcm−2
Procedure: as §3

E. coli = assay: Antimicrobial inactivation under consumer LED lamp; type: cell-based, Escherichia coli; settings: dyed filter paper, 1 h illumination from LED lamp
Procedure: as §1, §2

[3] = Leeching test of dyed paper in PBS buffer; type: physicochemical
Procedure: Stability of the dye Pc4 against was tested with PBS buffer pH 7.2. The absorbance and emission of PBS buffer incubated with dye papers were measured for checking the leeching (FIGS. 9a and b). […] Absorbance and emission of PBS buffer from each vial was measured after 1 h to check the leeching of dyes from papers.

[4] = Pc4 filter paper-Dark 1 h, dilution factor 2.50E−05, 0.1 ml plated
[5] = Pc4 filter paper-Dark 1 h, dilution factor 2.50E−06, 0.1 ml plated
[6] = Pc4 filter paper-Dark 1 h, dilution factor 2.50E−07, 0.1 ml plated
[7] = illuminated Pc4 filter paper 1 h, dilution factor 2.50E−03, 0.1 ml plated
[8] = illuminated Pc4 filter paper 1 h, dilution factor 2.50E−04, 0.1 ml plated
[9] = illuminated Pc4 filter paper 1 h, dilution factor 2.50E−05, 0.1 ml plated
[10] = illuminated Pc4 filter paper 1 h, dilution factor 2.50E−06, 0.1 ml plated
[11] = illuminated Pc4 filter paper 1 h, dilution factor 2.50E−07, 0.1 ml plated

## {4,4′,4″,4″-(29H,31H-phthalocyanine-1(4),8(11),15(18),22(25)-tetrayl-κ 4N29,N30,N31,N32)tetrakis [1-methylpyridiniumato(2-)]}zinc(4+) tetraiodide [Pc4]
A. baylyi ADP1; A. baylyi, illuminated Pc4 filter paper, 1 hour solar simulator
  microbial growth on plates: No microbial growth
A. baylyi ADP1; Pc4 filter paper-Dark 1 h, dilution factor 2.50E−03, 0.1 ml plated
  Colony counts after incubation: Too many to count
A. baylyi ADP1; Pc4 filter paper-Dark 1 h, dilution factor 2.50E−04, 0.1 ml plated
  Colony counts after incubation: Too many to count
A. baylyi ADP1; [4]
  CFU/ml: 7.06E+07 CFU/ml
  Colony counts after incubation: 175
  Colony counts after incubation (Average): 176.5
  Colony counts after incubation (Duplicate): 178
A. baylyi ADP1; [5]
  CFU/ml: 5.20E+07 CFU/ml
  Colony counts after incubation: 22
  Colony counts after incubation (Average): 13
  Colony counts after incubation (Duplicate): 4
A. baylyi ADP1; [6]
  CFU/ml: 1.40E+08 CFU/ml
  Colony counts after incubation: 6
  Colony counts after incubation (Average): 3.5
  Colony counts after incubation (Duplicate): 1
A. baylyi ADP1; [7]
  CFU/ml: 0.00E+00 CFU/ml
  Colony counts after incubation: 0
  Colony counts after incubation (Average): 0
  Colony counts after incubation (Duplicate): 0
A. baylyi ADP1; [8]
  CFU/ml: 0.00E+00 CFU/ml
  Colony counts after incubation: 0
  Colony counts after incubation (Average): 0
  Colony counts after incubation (Duplicate): 0
A. baylyi ADP1; [9]
  CFU/ml: 0.00E+00 CFU/ml
  Colony counts after incubation: 0
  Colony counts after incubation (Average): 0
  Colony counts after incubation (Duplicate): 0
A. baylyi ADP1; [10]
  CFU/ml: 0.00E+00 CFU/ml
  Colony counts after incubation: 0
  Colony counts after incubation (Average): 0
  Colony counts after incubation (Duplicate): 0
A. baylyi ADP1; [11]
  CFU/ml: 0.00E+00 CFU/ml
  Colony counts after incubation: 0
  Colony counts after incubation (Average): 0
  Colony counts after incubation (Duplicate): 0
A. baylyi
  inactivation of microorganisms: complete inactivation
[1]
  efficiency of dye (luminescence after illumination): most efficient
[2]
  efficiency of dye (luminescence after illumination): most efficient
E. coli
  inactivation of microorganisms: complete inactivation
[3]; PBS pH 7.2, 20 h of incubation at room temperature
  absorbance of PBS extract of dyed paper (leeching): did not show any peak corresponding to the dye
[3]; PBS pH 7.2, excitation at 694 nm
  emission of PBS extract of dyed paper (leeching): very faint emission peak of negligible intensity
[3]; dye impregnated on filter paper, PBS buffer pH 7.2
  stability against leeching from paper: exceptionally high stability against leeching; also recorded: does not release back to solution
